The results in this text go back to ChEMBL document CHEMBL1146965, “Pyridone derivatives as potent and selective VLA-4 integrin antagonists” (Bioorg Med Chem Lett, 2006).

Type in all cases: cell-based
In assay [1] the target is Integrin alpha-4/beta-1 (Homo sapiens, UniProt P05556+P13612). Kind of assay: Binding affinity to integrin alpha-4-beta-1 expressed in jurkat J6 cells.
The target in assay [2] is Integrin alpha-5/beta-1 (Homo sapiens, UniProt P05556+P08648). Kind of assay: Binding affinity to integrin alpha-5-beta-1 expressed in jurkat J6 cells.
Assay [3] addresses Integrin alpha-V/beta-6 (Homo sapiens, UniProt P06756+P18564). Kind of assay: Binding affinity to integrin alpha-v-beta-6 expressed in jurkat J6 cells.
Assay [4] has as its target T1, Integrin alpha-4/beta-7 (Homo sapiens, UniProt P13612+P26010).
T1 sequence (P13612 whole entry): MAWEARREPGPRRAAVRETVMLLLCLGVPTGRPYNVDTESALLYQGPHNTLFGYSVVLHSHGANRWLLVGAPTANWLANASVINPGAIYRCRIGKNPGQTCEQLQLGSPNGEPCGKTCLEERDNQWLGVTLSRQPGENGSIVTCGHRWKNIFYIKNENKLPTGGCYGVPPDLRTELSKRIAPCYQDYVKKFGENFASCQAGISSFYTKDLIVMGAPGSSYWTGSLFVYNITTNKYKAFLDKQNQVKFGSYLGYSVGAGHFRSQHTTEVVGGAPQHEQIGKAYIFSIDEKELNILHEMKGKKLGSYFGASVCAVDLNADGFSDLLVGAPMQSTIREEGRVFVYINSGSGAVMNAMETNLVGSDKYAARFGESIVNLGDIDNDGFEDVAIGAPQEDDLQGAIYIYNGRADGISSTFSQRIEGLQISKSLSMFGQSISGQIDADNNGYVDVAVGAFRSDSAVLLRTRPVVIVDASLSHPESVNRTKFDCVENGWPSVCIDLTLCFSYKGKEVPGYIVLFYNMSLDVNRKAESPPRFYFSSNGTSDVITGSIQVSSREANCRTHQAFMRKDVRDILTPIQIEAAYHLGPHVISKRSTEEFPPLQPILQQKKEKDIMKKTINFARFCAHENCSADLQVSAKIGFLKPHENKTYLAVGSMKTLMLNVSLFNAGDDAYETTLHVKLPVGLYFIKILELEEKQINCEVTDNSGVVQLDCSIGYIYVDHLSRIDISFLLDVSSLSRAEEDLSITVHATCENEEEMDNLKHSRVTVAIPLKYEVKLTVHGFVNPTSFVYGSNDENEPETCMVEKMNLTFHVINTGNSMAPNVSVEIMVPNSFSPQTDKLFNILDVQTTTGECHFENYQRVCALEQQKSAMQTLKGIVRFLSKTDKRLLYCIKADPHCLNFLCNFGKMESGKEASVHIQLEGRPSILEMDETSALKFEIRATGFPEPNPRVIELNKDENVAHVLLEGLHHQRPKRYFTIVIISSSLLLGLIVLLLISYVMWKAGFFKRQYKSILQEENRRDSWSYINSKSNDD
T1 sequence (P26010 whole entry): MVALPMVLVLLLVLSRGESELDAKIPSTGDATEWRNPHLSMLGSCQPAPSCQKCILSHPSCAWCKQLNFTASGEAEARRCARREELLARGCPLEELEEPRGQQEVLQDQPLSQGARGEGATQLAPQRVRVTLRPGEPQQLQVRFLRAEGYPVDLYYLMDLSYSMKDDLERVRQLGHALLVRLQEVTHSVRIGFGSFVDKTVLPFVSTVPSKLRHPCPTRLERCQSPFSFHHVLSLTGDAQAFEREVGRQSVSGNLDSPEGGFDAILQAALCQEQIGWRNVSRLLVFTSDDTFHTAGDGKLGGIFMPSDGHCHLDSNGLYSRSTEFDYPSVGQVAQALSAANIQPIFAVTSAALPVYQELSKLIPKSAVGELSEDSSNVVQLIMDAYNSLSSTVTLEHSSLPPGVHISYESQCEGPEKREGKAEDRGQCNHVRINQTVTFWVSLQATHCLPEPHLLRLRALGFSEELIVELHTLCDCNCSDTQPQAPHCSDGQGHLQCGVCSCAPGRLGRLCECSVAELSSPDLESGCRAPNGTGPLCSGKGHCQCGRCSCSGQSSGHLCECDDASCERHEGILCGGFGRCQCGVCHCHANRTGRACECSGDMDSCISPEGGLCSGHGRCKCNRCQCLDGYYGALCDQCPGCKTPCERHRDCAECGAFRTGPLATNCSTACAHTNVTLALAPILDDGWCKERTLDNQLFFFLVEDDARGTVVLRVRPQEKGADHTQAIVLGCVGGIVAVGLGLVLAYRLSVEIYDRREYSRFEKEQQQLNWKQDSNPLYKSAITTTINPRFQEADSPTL
Kind of assay: Binding affinity to integrin alpha-4-beta-7 expressed in jurkat J6 cells.

In assay [5] the target is Integrin alpha-V/beta-3 (Homo sapiens, UniProt P05106+P06756). The assay can be described thus: Binding affinity to integrin alphavbeta3 expressed in jurkat J6 cells.
Assay [6] concerns the target Integrin alpha-IIb/beta-3 (Homo sapiens, UniProt P05106+P08514). Kind of assay: Binding affinity to integrin […] expressed in jurkat J6 cells.

Sequence of Integrin alpha-4/beta-1 (P05556 whole entry, one chain of several): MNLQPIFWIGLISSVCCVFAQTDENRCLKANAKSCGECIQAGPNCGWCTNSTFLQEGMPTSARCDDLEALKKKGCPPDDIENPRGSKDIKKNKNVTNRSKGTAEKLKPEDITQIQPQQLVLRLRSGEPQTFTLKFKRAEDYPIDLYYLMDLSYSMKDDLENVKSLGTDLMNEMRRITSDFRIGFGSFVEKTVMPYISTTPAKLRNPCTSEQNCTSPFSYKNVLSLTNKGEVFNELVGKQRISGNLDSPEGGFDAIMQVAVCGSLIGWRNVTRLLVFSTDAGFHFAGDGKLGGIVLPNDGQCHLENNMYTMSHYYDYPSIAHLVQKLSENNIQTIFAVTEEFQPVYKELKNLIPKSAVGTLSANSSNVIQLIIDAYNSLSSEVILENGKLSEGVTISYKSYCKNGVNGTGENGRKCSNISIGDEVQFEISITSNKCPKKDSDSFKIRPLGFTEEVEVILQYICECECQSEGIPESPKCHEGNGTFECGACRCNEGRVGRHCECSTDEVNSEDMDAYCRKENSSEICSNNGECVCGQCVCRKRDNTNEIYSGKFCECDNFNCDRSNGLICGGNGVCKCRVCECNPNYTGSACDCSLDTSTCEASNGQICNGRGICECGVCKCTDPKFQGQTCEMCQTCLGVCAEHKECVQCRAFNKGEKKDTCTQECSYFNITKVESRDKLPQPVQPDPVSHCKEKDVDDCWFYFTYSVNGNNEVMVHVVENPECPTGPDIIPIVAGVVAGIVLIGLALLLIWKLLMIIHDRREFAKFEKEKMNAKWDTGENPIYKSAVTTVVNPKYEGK
Sequence of Integrin alpha-V/beta-6 (P06756 31-889 limits assumed): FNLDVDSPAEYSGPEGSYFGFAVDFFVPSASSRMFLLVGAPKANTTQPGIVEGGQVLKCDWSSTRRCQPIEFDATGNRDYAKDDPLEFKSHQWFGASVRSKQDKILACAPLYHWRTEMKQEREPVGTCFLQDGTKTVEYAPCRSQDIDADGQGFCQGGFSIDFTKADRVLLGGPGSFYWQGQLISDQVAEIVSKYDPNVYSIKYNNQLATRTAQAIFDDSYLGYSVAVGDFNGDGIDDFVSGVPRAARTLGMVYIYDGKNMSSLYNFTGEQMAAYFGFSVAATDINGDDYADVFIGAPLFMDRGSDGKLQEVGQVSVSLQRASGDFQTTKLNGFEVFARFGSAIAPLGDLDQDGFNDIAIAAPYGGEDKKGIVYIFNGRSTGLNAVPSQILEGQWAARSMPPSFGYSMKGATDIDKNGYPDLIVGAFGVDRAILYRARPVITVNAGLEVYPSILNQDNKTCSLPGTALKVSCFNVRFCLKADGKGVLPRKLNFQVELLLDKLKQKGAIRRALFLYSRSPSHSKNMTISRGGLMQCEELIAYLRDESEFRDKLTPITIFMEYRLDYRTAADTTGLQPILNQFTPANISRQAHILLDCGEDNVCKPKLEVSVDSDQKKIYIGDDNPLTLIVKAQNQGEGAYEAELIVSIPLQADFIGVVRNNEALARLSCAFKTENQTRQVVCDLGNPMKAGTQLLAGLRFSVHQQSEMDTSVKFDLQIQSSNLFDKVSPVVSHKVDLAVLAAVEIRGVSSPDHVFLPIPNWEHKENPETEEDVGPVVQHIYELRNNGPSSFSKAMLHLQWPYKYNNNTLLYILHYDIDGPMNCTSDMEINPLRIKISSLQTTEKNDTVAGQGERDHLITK
Sequence of Integrin alpha-V/beta-6 (P06756 891-1048 limits assumed): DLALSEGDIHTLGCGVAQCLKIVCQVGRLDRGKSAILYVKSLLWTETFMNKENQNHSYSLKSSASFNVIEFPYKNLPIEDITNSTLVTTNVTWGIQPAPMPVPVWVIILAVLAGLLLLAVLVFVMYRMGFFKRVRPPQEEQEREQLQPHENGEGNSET
Sequence of Integrin alpha-V/beta-6 (P18564 22-788 limits assumed): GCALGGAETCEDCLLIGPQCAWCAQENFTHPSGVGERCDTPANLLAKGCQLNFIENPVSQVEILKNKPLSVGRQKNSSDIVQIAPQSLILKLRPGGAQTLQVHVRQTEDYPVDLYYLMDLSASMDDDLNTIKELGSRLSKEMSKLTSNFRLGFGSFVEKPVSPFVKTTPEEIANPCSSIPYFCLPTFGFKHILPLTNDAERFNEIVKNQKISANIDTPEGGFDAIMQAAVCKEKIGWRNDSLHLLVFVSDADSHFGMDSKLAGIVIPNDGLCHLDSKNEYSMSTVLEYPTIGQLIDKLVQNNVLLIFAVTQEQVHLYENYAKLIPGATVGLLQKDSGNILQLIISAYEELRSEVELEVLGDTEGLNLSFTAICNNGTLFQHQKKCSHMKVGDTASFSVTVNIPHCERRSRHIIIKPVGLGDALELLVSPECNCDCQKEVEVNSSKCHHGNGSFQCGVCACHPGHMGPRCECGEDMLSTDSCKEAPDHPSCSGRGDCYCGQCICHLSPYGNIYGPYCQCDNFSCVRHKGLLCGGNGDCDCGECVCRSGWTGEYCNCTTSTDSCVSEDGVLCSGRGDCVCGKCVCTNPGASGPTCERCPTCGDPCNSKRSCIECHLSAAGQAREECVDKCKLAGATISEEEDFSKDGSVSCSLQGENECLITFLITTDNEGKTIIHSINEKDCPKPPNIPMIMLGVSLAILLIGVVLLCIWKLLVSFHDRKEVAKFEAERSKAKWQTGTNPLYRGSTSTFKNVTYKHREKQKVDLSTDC
Sequence of Integrin alpha-IIb/beta-3 (P05106 27-788 limits assumed): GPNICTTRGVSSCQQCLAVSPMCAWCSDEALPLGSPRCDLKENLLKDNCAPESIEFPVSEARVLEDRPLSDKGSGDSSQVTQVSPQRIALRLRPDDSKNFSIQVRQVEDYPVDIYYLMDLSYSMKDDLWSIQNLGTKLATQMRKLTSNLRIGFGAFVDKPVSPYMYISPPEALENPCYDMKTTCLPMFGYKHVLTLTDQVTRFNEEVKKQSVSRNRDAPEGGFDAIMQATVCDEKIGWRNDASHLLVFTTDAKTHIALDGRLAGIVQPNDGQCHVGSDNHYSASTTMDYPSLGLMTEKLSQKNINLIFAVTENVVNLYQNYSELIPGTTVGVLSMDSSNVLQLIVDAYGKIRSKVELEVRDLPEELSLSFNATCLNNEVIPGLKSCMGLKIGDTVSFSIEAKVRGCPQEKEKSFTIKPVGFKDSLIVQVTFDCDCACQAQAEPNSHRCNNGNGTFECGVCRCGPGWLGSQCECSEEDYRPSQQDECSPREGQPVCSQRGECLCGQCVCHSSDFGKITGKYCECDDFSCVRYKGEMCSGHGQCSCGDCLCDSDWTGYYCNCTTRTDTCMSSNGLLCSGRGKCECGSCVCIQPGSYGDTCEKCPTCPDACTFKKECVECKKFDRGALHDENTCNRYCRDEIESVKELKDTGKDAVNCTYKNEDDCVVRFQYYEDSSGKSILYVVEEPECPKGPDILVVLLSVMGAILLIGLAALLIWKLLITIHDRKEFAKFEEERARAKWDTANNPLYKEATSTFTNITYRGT
Sequence of Integrin alpha-IIb/beta-3 (P08514 32-887 limits assumed): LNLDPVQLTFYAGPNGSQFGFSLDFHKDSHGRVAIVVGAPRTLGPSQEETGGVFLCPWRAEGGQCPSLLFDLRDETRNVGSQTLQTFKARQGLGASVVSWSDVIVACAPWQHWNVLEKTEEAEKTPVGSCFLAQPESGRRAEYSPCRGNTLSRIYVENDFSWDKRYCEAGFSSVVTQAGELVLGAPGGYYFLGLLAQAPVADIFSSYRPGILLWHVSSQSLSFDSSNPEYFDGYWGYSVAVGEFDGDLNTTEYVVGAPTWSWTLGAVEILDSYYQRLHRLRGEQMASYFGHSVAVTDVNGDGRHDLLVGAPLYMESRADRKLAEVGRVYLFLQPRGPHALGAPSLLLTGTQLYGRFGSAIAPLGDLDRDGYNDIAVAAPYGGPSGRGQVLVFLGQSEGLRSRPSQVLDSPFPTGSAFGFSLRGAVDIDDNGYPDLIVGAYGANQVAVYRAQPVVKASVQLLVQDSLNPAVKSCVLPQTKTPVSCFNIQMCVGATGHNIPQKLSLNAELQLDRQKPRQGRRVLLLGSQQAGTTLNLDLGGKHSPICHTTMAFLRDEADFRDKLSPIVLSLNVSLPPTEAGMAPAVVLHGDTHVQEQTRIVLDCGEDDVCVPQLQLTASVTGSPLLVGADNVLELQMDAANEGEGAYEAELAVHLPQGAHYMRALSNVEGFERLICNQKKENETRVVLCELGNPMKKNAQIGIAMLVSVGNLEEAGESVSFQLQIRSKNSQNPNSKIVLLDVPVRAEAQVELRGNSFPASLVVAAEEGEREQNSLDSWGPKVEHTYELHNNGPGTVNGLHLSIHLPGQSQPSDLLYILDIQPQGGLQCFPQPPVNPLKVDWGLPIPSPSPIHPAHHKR
Sequence of Integrin alpha-IIb/beta-3 (P08514 891-1039 limits assumed): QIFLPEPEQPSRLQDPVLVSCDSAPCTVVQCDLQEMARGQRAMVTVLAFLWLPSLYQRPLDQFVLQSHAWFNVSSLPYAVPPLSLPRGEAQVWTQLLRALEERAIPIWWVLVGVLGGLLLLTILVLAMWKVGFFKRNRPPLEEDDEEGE
Sequence of Integrin alpha-V/beta-3 (P05106 27-788 limits assumed): as the sequence (P05106 27-788 limits assumed) above
Sequence of Integrin alpha-V/beta-3 (P06756 31-889 partner limits assumed): as the sequence (P06756 31-889 limits assumed) above
Sequence of Integrin alpha-V/beta-3 (P06756 891-1048 partner limits assumed): as the sequence (P06756 891-1048 limits assumed) above

Turning to `Cc1ccccc1NC(=O)Nc1ccc(-c2cn(Cc3ccc(CCC(=O)O)cc3)cn2)cc1`, in assay [1], the Ki was above 100 µM. Same read-out and setting: the same measure for `Cc1ccccc1NC(=O)Nc1ccc(-c2cccn(Cc3ccc(CC(=O)O)cc3)c2=O)cc1`: 0.251 µM; for `Cc1ccccc1NC(=O)Nc1ccc(-c2ccn(Cc3ccc(CCC(=O)O)cc3)n2)cc1`: 0.251 µM; for `COc1cc(CC(=O)Nc2ccc([C@H](C)CC(=O)O)cc2)ccc1NC(=O)Nc1ccccc1C`: 0.000794 µM. Same read-out and setting: the same measure for `COc1cc(-c2nnc(Cc3ccc(CCC(=O)O)cc3)o2)ccc1NC(=O)Nc1ccccc1C`: above 1 µM; for `COc1cc(-c2ccn(Cc3ccc(CCC(=O)O)cc3)n2)ccc1NC(=O)Nc1ccccc1C`: 0.0251 µM. On to `Cc1ccccc1NC(=O)Nc1ccc(-c2cccn(Cc3ccc(C(=O)O)cc3)c2=O)cc1`, for which the affinity in assay [1], expressed as Ki, was 0.316 µM. In the case of `Cc1ccccc1NC(=O)Nc1ccc(-c2cccn(Cc3ccc(CCC(=O)O)cc3)c2=O)cc1`, the Ki was above 10 µM in assay [2]; 0.002 µM in assay [1]; above 10 µM in assay [3]; above 10 µM in assay [4]; above 10 µM in assay [5]; above 10 µM in assay [6].

Consider `Cc1ccccc1NC(=O)Nc1ccc(-c2cnn(Cc3ccc(CCC(=O)O)cc3)c2)cc1`, for which the inhibition constant (Ki) in assay [1] is above 1 µM. Same read-out and setting: the same measure for `Cc1ccccc1NC(=O)Nc1ccc(-c2cccn(Cc3ccccc3CCC(=O)O)c2=O)cc1`: 0.398 µM. Still for that read-out and setting: the same measure for `COc1cc(-c2cccn(Cc3ccc(CCC(=O)O)cc3)c2=O)ccc1NC(=O)Nc1ccccc1C`: 0.000501 µM; for `Cc1ccccc1NC(=O)Nc1ccc(-c2cccn(Cc3cccc(CCC(=O)O)c3)c2=O)cc1`: 0.00398 µM; for `Cc1ccccc1NC(=O)Nc1ccc(-c2cccn(-c3ccc(CCC(=O)O)cc3)c2=O)cc1`: above 1 µM. On the same count and under the same terms, the same measure for `Cc1ccccc1NC(=O)Nc1ccc(CC(=O)Nc2ccc([C@H](C)CC(=O)O)cc2)cc1`: 0.0631 µM; for `Cc1ccccc1NC(=O)Nc1ccc(-c2ncn(Cc3ccc(CCC(=O)O)cc3)n2)cc1`: 0.501 µM.
